Target: T1, Aurora kinase A (AURKA) (Homo sapiens, UniProt O14965)
T1 construct: endogenous in cells; host or cells: HeLa LgBit (AURKA-HiBit KI), CRISPR/Cas9 knock-in at the endogenous AURKA locus
T1 sequence (O14965 1-403): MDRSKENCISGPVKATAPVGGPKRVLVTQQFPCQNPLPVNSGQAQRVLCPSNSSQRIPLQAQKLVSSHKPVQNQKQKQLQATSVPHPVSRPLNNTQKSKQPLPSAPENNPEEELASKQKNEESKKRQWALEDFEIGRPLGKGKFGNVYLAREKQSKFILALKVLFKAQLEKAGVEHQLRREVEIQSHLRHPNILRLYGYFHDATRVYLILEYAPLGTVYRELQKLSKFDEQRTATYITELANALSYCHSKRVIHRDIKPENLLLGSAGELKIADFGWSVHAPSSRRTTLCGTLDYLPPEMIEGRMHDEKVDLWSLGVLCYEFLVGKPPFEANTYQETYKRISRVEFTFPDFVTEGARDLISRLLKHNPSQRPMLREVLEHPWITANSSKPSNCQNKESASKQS
Assay: Luciferase assay for AURKA in HeLa LgBit (AURKA-HiBit KI) cell line
Assay type: cell-based
Conditions: HeLa LgBit (AURKA-HiBit KI) cells, measured after 12 hours
Description: HeLa cell lines that stably express LgBit were constructed via LgBit vector transfection. Then, donor DNA and guide RNA for insertion of HiBit amino acid sequence at C-terminus of inherent Aurora kinase A (AURKA) genes were designed and constructed. Thereafter, they were transfected into the cell lines with CRISPR/Cas9 expression vector system. HiBit gene knock-in single cells were selected, passaged and used for the experiments.
For cell culture, DMEM (Gibco, Cat. No. 11995-065; Lot. No. 2562497), FBS (Gibco, Cat. No. 16000-044; Lot. No. 2511328P), Penicillin/Streptomycin (PS) (Gibco, Cat. No. 15140-122; Lot. No. 2585636), 90 mm^2 cell culture dish (SPL, Cat. No. 20100), 96-well white plate, PBS pH 7.4 (Gibco, […]), TrypLE™ Express (Gibco, Cat. No. 12605-010; Lot. No. 2522525), counting chamber (hematocytometer) (Hirschmann, Cat. No. 8100204; Lot. No. 8021087) and 0.4% Trypan Blue solution (DYNEBIO, Cat. No. CBT3710; Lot. No. 20231017) were used. Cells were cultured in DMEM supplemented with 10% FBS and 1% PS and incubated in CO2 incubator (Thermo, Cat. No. 4111) at 37° C., 5% CO2 condition.
HeLa LgBit (AURKA-HiBit KI) cell lines were cultured in 90 mm^2 cell culture dish, and 3×10^4 cells in […] of total medium volume were seeded and incubated for 18 hours in CO2 incubator. Then, Eudurazine (Promega, Cat. No. N247B; Lot. No. 495218) was added to each well to make up 1% of the total volume, followed by further incubation for 2 hours in CO2 incubator.
The present compounds were fully dissolved in DMSO (Sigma-Aldrich Cat. No. D2438, Lot. No. RNBL7287) and 10 nM or 100 nM of total concentration were used in the experiment. After adding the compounds in each well of 96-well white plate, the plate was placed in the plate reader (BMG Labtech, CLARIOstar Plus) for real-time analysis. The wavelength for analysis was set to […], and the luminescence value was measured after 12 hours. The luminescence value was analyzed through an Excel program.

Structure (SMILES)	luminescence value (Level) (10 nM compound)	luminescence value (Level) (100 nM compound)
O=C1CCC(c2ccc(N3CCN(CCN4CC[C@@H](NC(=O)c5ccc(Nc6ncc(F)c(Nc7ccc(C(=O)Nc8ccccc8Cl)cc7)n6)cc5)C4)CC3)cc2)C(=O)N1 (stereo partly drawn) [Compound 64, N-(2-chlorophenyl)-4-((2-((4-(((3R)-1-(2-(4-(4-(2,6-dioxopiperidin-3-yl)phenyl)piperazin-1-yl)ethyl)pyrrolidin-3-yl)carbamoyl)phenyl)amino)-5-fluoropyrimidin-4-yl)amino)benzamide]	B (B is 0.3 to 0.5)	A (A is <0.2)
O=C1CCC(c2ccc(N3CCN(CCN4CC[C@H](NC(=O)c5ccc(Nc6ncc(F)c(Nc7ccc(C(=O)Nc8ccccc8Cl)cc7)n6)cc5)C4)CC3)cc2)C(=O)N1 (stereo partly drawn) [Compound 68, N-(2-chlorophenyl)-4-((2-((4-(((3S)-1-(2-(4-(4-(2,6-dioxopiperidin-3-yl)phenyl)piperazin-1-yl)ethyl)pyrrolidin-3-yl)carbamoyl)phenyl)amino)-5-fluoropyrimidin-4-yl)amino)benzamide]	B (B is 0.3 to 0.5)	A (A is <0.2)
COc1cc(C(=O)NN2CCC(CCN3CCN(c4ccc(C5CCC(=O)NC5=O)cc4)CC3)CC2)ccc1Nc1ncc(F)c(Nc2ccc(C(=O)Nc3ccccc3Cl)cc2)n1 (stereo not shown) [Compound 84, 4-((4-((4-((2-chlorophenyl)carbamoyl)phenyl)amino)-5-fluoropyrimidin-2-yl)amino)-N-(4-(2-(4-(4-(2,6-dioxopiperidin-3-yl)phenyl)piperazin-1-yl)ethyl)piperidin-1-yl)-3-methoxybenzamide]	C (C is 0.5 to 0.7)	B (B is 0.2 to 0.4)
O=C1CC[C@H](NC(=O)c2ccc(N3CCN(CCC4CCN(NC(=O)c5ccc(Nc6ncc(F)c(Nc7ccc(C(=O)Nc8ccccc8Cl)cc7)n6)cc5)CC4)CC3)cn2)C(=O)N1 [Compound 87, (S)-5-(4-(2-(1-(4-((4-((4-((2-chlorophenyl)carbamoyl)phenyl)amino)-5-fluoropyrimidin-2-yl)amino)benzamido)piperidin-4-yl)ethyl)piperazin-1-yl)-N-(2,6-dioxopiperidin-3-yl)picolinamide]	B (B is 0.3 to 0.5)	B (B is 0.2 to 0.4)
O=C1CC[C@H](NC(=O)c2ccc(N3CCN(CCC4CCN(NC(=O)c5ccc(Nc6ncc(F)c(Nc7ccc(C(=O)Nc8ccccc8Cl)cc7)n6)cc5)CC4)CC3)cc2F)C(=O)N1 [Compound 89, (S)-4-(4-(2-(1-(4-((4-((4-((2-chlorophenyl)carbamoyl)phenyl)amino)-5-fluoropyrimidin-2-yl)amino)benzamido)piperidin-4-yl)ethyl)piperazin-1-yl)-N-(2,6-dioxopiperidin-3-yl)-2-fluorobenzamide]	B (B is 0.3 to 0.5)	B (B is 0.2 to 0.4)
O=C1CCC(c2ccc(N3CCN(CCC4CCN(NC(=O)c5ccc(Nc6ncc(F)c(Nc7ccc(C(=O)Nc8ccccc8Cl)cc7)n6)nc5)CC4)CC3)cc2)C(=O)N1 (stereo not shown) [Compound 91, 6-[[4-[4-[(2-chlorophenyl)carbamoyl]anilino]-5-fluoro-pyrimidin-2-yl]amino]-N-[4-[2-[4-[4-(2,6-dioxo-3-piperidyl)phenyl]piperazin-1-yl]ethyl]-1-piperidyl]pyridine-3-carboxamide]	D (D is 0.7 to 0.8)	C (C is 0.4 to 0.6)
O=C1CCC(c2ccc(N3CCN(CCC4CCN(NC(=O)c5ccc(Nc6ncc(F)c(Nc7ccc(C(=O)NC8CCCCC8)cc7)n6)cc5)CC4)CC3)cc2)C(=O)N1 (stereo not shown) [Compound 92, N-cyclohexyl-4-((2-((4-((4-(2-(4-(4-(2,6-dioxopiperidin-3-yl)phenyl)piperazin-1-yl)ethyl)piperidin-1-yl)carbamoyl)phenyl)amino)-5-fluoropyrimidin-4-yl)amino)benzamide]	B (B is 0.3 to 0.5)	A (A is <0.2)
CN(C(=O)c1ccc(Nc2nc(Nc3ccc(C(=O)NN4CCC(CCN5CCN(c6ccc(C7CCC(=O)NC7=O)cc6)CC5)CC4)cc3)ncc2F)cc1)c1ccccc1Cl (stereo not shown) [Compound 102, 4-[[4-[4-[(2-chlorophenyl)-methyl-carbamoyl]anilino]-5-fluoro-pyrimidin-2-yl]amino]-N-[4-[2-[4-[4-(2,6-dioxo-3-piperidyl)phenyl]piperazin-1-yl]ethyl]-1-piperidyl]benzamide]	B (B is 0.3 to 0.5)	A (A is <0.2)
O=C1CCC(c2ccc(N3CCN(CCC4CCN(NC(=O)c5ccc(Nc6ncc(F)c(Nc7ccc(C(=O)Nc8ccccc8Cl)cc7)n6)cc5F)CC4)CC3)cc2)C(=O)N1 (stereo not shown) [Compound 105, 4-[[4-[4-[(2-chlorophenyl)carbamoyl]anilino]-5-fluoro-pyrimidin-2-yl]amino]-N-[4-[2-[4-[4-(2,6-dioxo-3-piperidyl)phenyl]piperazin-1-yl]ethyl]-1-piperidyl]-2-fluoro-benzamide]	B (B is 0.3 to 0.5)	A (A is <0.2)
Cn1nc(C2CCC(=O)NC2=O)c2cc(F)c(N3CCN(CCC4CCN(NC(=O)c5ccc(Nc6ncc(F)c(Nc7ccc(C(=O)Nc8ccccc8Cl)cc7)n6)cc5)CC4)CC3)cc21 (stereo not shown) [Compound 107, N-(2-chlorophenyl)-4-((2-((4-((4-(2-(4-(3-(2,6-dioxopiperidin-3-yl)-5-fluoro-1-methyl-1H-indazol-6-yl)piperazin-1-yl)ethyl)piperidin-1-yl)carbamoyl)phenyl)amino)-5-fluoropyrimidin-4-yl)amino)benzamide]	A (A is <0.3)	A (A is <0.2)
COc1cc(N2CCN(CCC3CCN(NC(=O)c4ccc(Nc5ncc(F)c(Nc6ccc(C(=O)Nc7ccccc7Cl)cc6)n5)cc4F)CC3)CC2)c(F)cc1C1CCC(=O)NC1=O (stereo not shown) [Compound 119, 4-((4-((4-((2-chlorophenyl)carbamoyl)phenyl)amino)-5-fluoropyrimidin-2-yl)amino)-N-(4-(2-(4-(4-(2,6-dioxopiperidin-3-yl)-2-fluoro-5-methoxyphenyl)piperazin-1-yl)ethyl)piperidin-1-yl)-2-fluorobenzamide]	C (C is 0.5 to 0.7)	B (B is 0.2 to 0.4)
